Measurements taken from patent US8680049B2 (Zealand Pharma A/S, priority 2008, dated 2014).

Assays:
[1] = biological target: T1, human GLP-1-R (Homo sapiens, UniProt P43220); assay: GLP-1 receptor efficacy assay (cAMP, HEK293 cells); type: cell-based; on EC50: crude peptides with purity of less than 90%
T1 construct: expressed in transfected cells
Experimental: (§1) The 5′-end primers additionally encoded a near Kozak consensus sequence to ensure efficient translation.
(§2) 48 hr after transfection cells were seeded for limited dilution cloning and selected with 1 mg/ml G418 in the culture medium.
(§3) On the day of analysis, growth medium was removed and the cells washed once with 200 μl Tyrode buffer. Cells were incubated in 100 μl Tyrode buffer containing increasing concentrations of test peptides, 100 μM IBMX, and 6 mM glucose for up 15 min at 37° C. The reaction was stopped by addition of 25 μl 0.5 M HCl and incubated on ice for 60 min. The cAMP content was estimated using the FlashPlate® cAMP kit from Perkin-Elmer.

[2] = biological target: T2, human Glucagon-R (Homo sapiens, UniProt P47871); assay: Glucagon receptor efficacy assay (cAMP, HEK293 cells); type: cell-based; settings: read-out: GLUR EC50; further: crude peptides with purity of less than 90%
T2 construct: expressed in transfected cells
T2 sequence (P47871 26-477): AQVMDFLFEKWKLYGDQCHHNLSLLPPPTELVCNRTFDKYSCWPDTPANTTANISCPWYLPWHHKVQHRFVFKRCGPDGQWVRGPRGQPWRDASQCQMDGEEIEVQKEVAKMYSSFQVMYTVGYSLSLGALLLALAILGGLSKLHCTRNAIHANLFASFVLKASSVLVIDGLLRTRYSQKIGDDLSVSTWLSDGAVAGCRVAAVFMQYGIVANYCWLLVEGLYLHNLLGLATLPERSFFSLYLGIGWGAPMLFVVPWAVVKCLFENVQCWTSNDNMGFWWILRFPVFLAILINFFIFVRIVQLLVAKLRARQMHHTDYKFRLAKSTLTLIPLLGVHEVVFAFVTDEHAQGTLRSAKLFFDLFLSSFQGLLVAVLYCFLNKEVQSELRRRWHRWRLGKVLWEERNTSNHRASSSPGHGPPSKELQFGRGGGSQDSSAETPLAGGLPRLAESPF
Experimental: as §1, §2, §3

[3] = system: primary rat adipocytes; type: cell-based
Experimental: Adipocytes were isolated from epididymal fat dissected from normal young adult Sprague-Dawley rats. The fat lumps were minced, incubated and shaken (220 rpm) with collagenase (1 mg/ml) in Krebs-Ringer buffer containing 4% BSA (KRB-BSA) for 60 minutes at 37° C. The suspension was filtered through a nylon filter (160 μm pore size) and the filtrate centrifuged at 200×g for 3 min. The subjacent medium beneath the upper floating layer of adipocytes was removed with a Pasteur-pipette. The adipocytes were washed 3 times in KRB-BSA buffer by re-suspension and centrifugation. The adipocytes were re-suspended in KRB-BSA, mixed, incubated in and shaken with test compounds in 96-deep well plates (50,000 cells/well) in a total volume of 1 ml at 37° C. for 60 min. The plates were placed on ice for at least 10 min after incubation followed by centrifugation at 200×g for 3 min. 300 μl of the buffer beneath the adipocyte layer were collected in a 96-deep well plate. This process was repeated two more times and the 3 extracts collected from each culture pooled together.

[4] = system: db/db mice; assay: Oral glucose tolerance test (OGTT) in db/db mice; type: in vivo; settings: i.p., 45 nmol/kg
Experimental: The animals were kept fasted during the experiment to prevent confounding food intake. Fifteen minutes later an oral dose of glucose (1 g/kg in 5 ml/kg) was given and BG levels were measured at t=30 min, t=60 min, t=120 min and t=240 min.
Difference from baseline (t=0) was calculated for each time point and AUC0-240 min values were determined. Statistical analyses of AUC values by one-way ANOVA and Dunnetts post-hoc analyses were performed with GraphPad Prism version 4. Differences were considered significant at the p<0.05 level.

[5] = system: C57Bl/6 mice; assay: Food intake in normal mice; type: in vivo; settings: fasted mice, s.c.; PYY3-36 30 nmol/kg, glucagon 500 nmol/kg, ZP2663 500 nmol/kg
Experimental: One week before study C57Bl/6 mice (8 weeks) (N=9-12 animals in each group) were conditioned to treatment by daily injections (s.c.) of 0.2 ml vehicle and acclimatized to handling by weighing them twice a week. Mice were stratified one day before start of experiment into groups with similar body weight (BW). […] After one hour pre-weighed food was introduced to the mice and food intake measured by weighing the remaining food after one hour and expressed relative to body weight (mg food/g BW). Statistical analyses of food intake data by one-way ANOVA and Dunnetts post-hoc analyses were performed with GraphPad Prism version 4. Differences were considered significant at the 0.05 level.

[6] = system: diet induced obese (DIO) mice; assay: 28 day treatment of diet induced obese (DIO) mice: body weight and plasma cholesterols; type: in vivo
Experimental: Four weeks before drug treatments, C57Bl/6 male mice (7 weeks) (N=9-12 animals in each group) were put on high fat diet (HFD) and their day-night cycle reversed with lights On/Off at 2000/0800 hour. Experimental animals were conditioned to treatment by daily injections (s.c.) of 0.1 ml vehicle and acclimatized to handling by weighing them twice a week one week before start of drug administrations. […] Animals were fasted overnight before sacrifice. An eye blood sample (0.6 ml EDTA) was obtained the following morning immediately before cervical dislocation. Blood plasma samples were stored at −80° C. until analyzed for cholesterol, HDL and LDL using commercially available kits. Body weight gain throughout the treatment period was calculated for each animal by subtracting its weight at the initiation of treatment.
The effects of treatment on body weight gain and cholesterols were assessed by 2-way ANOVA with repeated measures and Bonferoni post-hoc analyses, using GraphPad Prism version 4. Differences were considered significant at the 0.05 level.

T1 sequence (P43220 24-463): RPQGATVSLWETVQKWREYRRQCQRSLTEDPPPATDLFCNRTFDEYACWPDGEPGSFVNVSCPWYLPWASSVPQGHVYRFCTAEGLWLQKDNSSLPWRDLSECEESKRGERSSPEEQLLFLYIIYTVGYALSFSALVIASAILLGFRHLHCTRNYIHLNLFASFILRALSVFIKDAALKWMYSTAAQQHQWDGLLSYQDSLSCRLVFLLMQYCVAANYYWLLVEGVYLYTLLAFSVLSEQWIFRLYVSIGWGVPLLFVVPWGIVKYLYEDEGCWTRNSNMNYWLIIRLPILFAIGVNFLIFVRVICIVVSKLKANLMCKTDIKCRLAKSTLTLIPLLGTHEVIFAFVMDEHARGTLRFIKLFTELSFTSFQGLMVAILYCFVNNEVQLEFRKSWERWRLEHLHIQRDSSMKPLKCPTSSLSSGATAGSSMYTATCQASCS

| Molecule | EC50 [1] [nM] | EC50 [2] [nM] | further results |
| --- | --- | --- | --- |
| H-HSQGTFTSDYSKYLDERAAKDFIEWLLSA-NH2 [Compound L006-0108] | 0.53 | 0.81 | – |
| H-HSQGTFTSDYSKYLDERRAKDFIDWLLSA-NH2 [Compound L006-0129] | 0.2 | 0.24 | – |
| CC[C@H](C)[C@H](NC(=O)[C@H](Cc1ccccc1)NC(=O)[C@H](CC(=O)O)NC(=O)[C@H](CCCCN)NC(=O)[C@H](C)NC(=O)[C@H](CCCNC(=N)N)NC(=O)[C@H](CCCNC(=N)N)NC(=O)[C@H](CCC(=O)O)NC(=O)[C@H](CC(=O)O)NC(=O)[C@H](CC(C)C)NC(=O)[C@H](Cc1ccc(O)cc1)NC(=O)[C@H](CCCCN)NC(=O)[C@H](CO)NC(=O)[C@H](Cc1ccc(O)cc1)NC(=O)[C@H](CC(=O)O)NC(=O)[C@H](CO)NC(=O)[C@@H](NC(=O)[C@H](Cc1ccccc1)NC(=O)[C@@H](NC(=O)CNC(=O)[C@H](CCC(N)=O)NC(=O)[C@H](CO)NC(=O)[C@@H](N)Cc1c[nH]cn1)[C@@H](C)O)[C@@H](C)O)C(=O)N[C@@H](CCC(=O)O)C(=O)N[C@@H](Cc1c[nH]c2ccccc12)C(=O)N[C@@H](CC(C)C)C(=O)N[C@@H](CC(C)C)C(=O)N[C@@H](CO)C(=O)N[C@@H](C)C(N)=O [ZP2663] | – | – | EC50 [3]: 4.4 nM; effect on lipolysis in primary adipocyte cultures (in words) [3]: equipotent with glucagon; improvement of glucose tolerance [4]: 64.9%; glucose tolerance during OGTT (in words) ([4]; AUC0-240 min): significantly improved glucose tolerance; food intake during the first hour (in words) [5]: significantly decreased food intake; body weight gain (in words) ([6]; 500 nmol/kg b.i.d. s.c., 28 days): decreased body weight gain to a level similar to that observed with chow feeding; blood concentration of LDL cholesterol vs vehicle (in words) ([6]; 4 weeks b.i.d.): statistically significantly different from the vehicle group; fat deposition (in words) ([6]; 4 weeks treatment): significantly decreased fat deposition |
| PYY(3-36): internal positive control for food intake (anorectic peptide) [reference compound] | – | – | food intake during the first hour (in words) [5]: anorectic effect |
| H-HSQGTFTSDYSKYLDERRAKDFIEWLLRA-NH2 [Compound L006-0138] | 0.29 | 0.38 | – |
| H-HSQGTFTSDYSKYLDERRAKDFIEWLLAA-NH2 [Compound L006-0136] | 0.22 | 0.33 | – |
| Exendin-4 | – | – | GLP-1R agonist activity (in words) [1]: very potent GLP-1R agonist; EC50, stimulation of lipolysis in primary rat adipocyte cultures ([3]; 60 min, glycerol formed): No effect |

The remaining molecules from weak to strong by EC50 [1], led by results:

| EC50 [1] [nM] | EC50 [2] [nM] | Molecule | further results |
| --- | --- | --- | --- |
| 0.16 | 0.25 | H-HSQGTFTSDYSKYLDKRRAEDFIKWLLSA-NH2 [Compound L006-0094] | – |
| 0.16 | 0.22 | H-HSQGTFTSDYSKYLDERRAKDFIRWLLSA-NH2 [Compound L006-0128] | – |
| 0.15 | 0.22 | CC[C@H](C)[C@H](NC(=O)[C@H](Cc1ccccc1)NC(=O)[C@H](CC(=O)O)NC(=O)[C@H](CCC(N)=O)NC(=O)[C@H](C)NC(=O)[C@H](CCCNC(=N)N)NC(=O)[C@H](CCCNC(=N)N)NC(=O)[C@H](CO)NC(=O)[C@H](CC(=O)O)NC(=O)[C@H](CC(C)C)NC(=O)[C@H](Cc1ccc(O)cc1)NC(=O)[C@H](CCCCN)NC(=O)[C@H](CO)NC(=O)[C@H](Cc1ccc(O)cc1)NC(=O)[C@H](CC(=O)O)NC(=O)[C@H](CO)NC(=O)[C@@H](NC(=O)[C@H](Cc1ccccc1)NC(=O)[C@@H](NC(=O)CNC(=O)[C@H](CCC(N)=O)NC(=O)[C@H](CO)NC(=O)[C@@H](N)Cc1c[nH]cn1)[C@@H](C)O)[C@@H](C)O)C(=O)N[C@@H](CCC(=O)O)C(=O)N[C@@H](Cc1c[nH]c2ccccc12)C(=O)N[C@@H](CC(C)C)C(=O)N[C@@H](CC(C)C)C(=O)N[C@@H](CO)C(=O)N[C@@H](C)C(N)=O [Compound L006-0090] | – |
| 0.14 | 0.23 | H-HSQGTFTSDYSKYLDSRRAKDFIEWLLSA-NH2 [Compound L006-0081] | – |
| 0.09 | – | H-HSQGTFTSDYSKYLDERRAQDFIEWLLSA-NH2 [Compound L006-0082] | – |
| 0.07 | 0.13 | H-HSQGTFTSDYSKYLDERRAKDFIQWLLSA-NH2 [Compound L006-0084] | – |
| 0.07 | 0.1 | H-HSQGTFTSDYSKYLDDRRARDFIDWLLSA-NH2 [Compound L006-0093] | – |
